Results taken from US20170368018A1, “USE OF ELLAGIC ACID DIHYDRATE IN PHARMACEUTICAL FORMULATIONS TO REGULATE BLOOD GLUCOSE LEVELS” (HALO LIFE SCIENCE, LLC, priority 2014, published 2017).

How the values were obtained:
[1] = test system: female SWV mice with STZ induced diabetes; experiment: Weight loss and blood glucose in mice with STZ induced diabetes; assay type: in vivo, mouse; conditions: STZ diabetic mice, thirty days
Method: Weight loss and blood glucose in diabetes induced mice treated with ellagic acid was determined and weight loss and blood glucose in mice treated with ellagic acid dihydrate may be determined by the following procedures. Induction of Diabetes: Diabetes is induced in mice by intraperitoneal injection with Streptozotocin (STZ 40 mg/kg) daily for five days. The mice are considered hyperglycemic when the glucose level of each dam is above 200 mg/dL. The mice are fasted for 4 hours before STZ injection and glucose measurement. Treatment: The mice are treated daily for thirty days with ellagic acid or control in the form of a supplemental pill homogenized and suspended in 25% water solution of Cremophor EL. The mice are treated for one month via gavage using the human equivalent dose of 122.4 mg pill/kg of subject (40.6 mg ellagic acid/kg of the subject), the human equivalent does of 40.6 mg ellagic acid/kg of the subject using 98% pure ellagic acid, or control vehicle (25% water solution of Cremophor EL). The human equivalent dose is calculated as described in Example 8. Treatments would start two weeks after the last STZ injection in which hyperglycemia is confirmed in the diabetic mice. The mice would be weighed daily and glucose levels would be measured in fasted animals every five days.

[2] = test system: MEF cells; experiment: Glucose uptake, 2-NBDG labeling, flow cytometry, MEFs; assay type: cell-based, mouse
Method: Cellular assays were performed using mouse myoblast C2C12 cells and MEF cells. […] Increased glucose uptake was indicated as increasing signal of 2-NBDG ([…]) in cells. Glucose uptake assays were carried out in a final incubation volume of 50 μl consisting of, 2-NBDG), (100 μM) in 1× Phosphate Buffered Saline w/Ca+, Mg+ (PBS++). The same buffer was used for washing cells. Insulin was used as a positive control. All testing compounds were prepared in […] and diluted 1:100 for a final concentration of 0.1% DMSO (vehicle). Cells were culture to 70-90% confluence and then washed twice with PBS++. Cells were incubated for 30 minutes at 37° C. in PBS++. Nuclear stain, HCS CellMask stain (blue, Invitrogen), and/or testing compounds (ellagic acid dihydrate, insulin, or vehicle) were added. Cells were incubated for 30 min at 37° C. Cells were washed twice with PBS++and incubated with 2-NBDG for 10 minutes. Cells were washed thrice with PBS++and then imaged in PBS++. Alternatively, the final PBS wash was removed and cells were incubated with Accutase (Invitrogen) for 10 min at 37° C., neutralized with 10% FBS in 1× PBS, and analyzed by flow cytometry. An additional experiment was performed to measure glucose uptake in C2C12 cells exposed to metformin, insulin and ellagic acid dihydrate 2 (batch 2). FIG. 5C. Glucose uptake in ellagic acid dihydrate treated cell culture was measured and compared to glucose uptake under insulin or ellagic acid treatment. […] Flow cytometry results were run in triplicate with 1000 cells per batch.

[3] = test system: female SWV mice; experiment: Weight loss and blood glucose in mice, thirty days daily gavage; assay type: in vivo, mouse; conditions: for body weight lost on average: supplemental pill, gavage daily
Method: Weight loss and blood glucose in mice treated with ellagic acid was determined and weight loss and blood glucose in mice treated with ellagic acid dihydrate may be determined by the following procedure. Mice are treated daily for thirty days with ellagic acid or control in the form of a supplemental pill homogenized and suspended in 25% water solution of Cremophor EL. The mice are treated via gavage using the human equivalent dose (LD) of 122.4 mg pill/kg of subject (40.6 mg ellagic acid/kg of the subject), 10× higher dose (HD) of 1224 mg pill/kg of the subject (406 mg ellagic acid/kg of the subject), or control vehicle (25% water solution of Cremophor EL). The LD and HD dose amounts are calculated based on the following assumptions: a human dose is one 603 mg (200 mg ellagic acid) pill/day, taken orally; the average weight of a person is 60 kg, thus, the average dose for a human equals approximately 9.95 mg of the pill (3.3 mg ellagic acid)/kg daily; a mouse equivalent dose requires 12.3 times the human dose per kg. The mice are weighed and treated daily, and blood glucose level are measured every two days for a total one month period.

[4] = test system: MEF cells; experiment: Glucose uptake, 2-NBDG labeling, high-content imaging (Operetta), MEFs; assay type: cell-based, mouse
Method: Increased glucose uptake was indicated as increasing signal of 2-NBDG ([…]) in cells. Glucose uptake assays were carried out in a final incubation volume of 50 μl consisting of, 2-NBDG), (100 μM) in 1× Phosphate Buffered Saline w/Ca+, Mg+ (PBS++). The same buffer was used for washing cells. Insulin was used as a positive control. All testing compounds were prepared in 10% DMSO and diluted 1:100 for a final concentration of 0.1% DMSO (vehicle). Cells were culture to 70-90% confluence and then washed twice with PBS++. Cells were incubated for 30 minutes at 37° C. in PBS++. Nuclear stain, HCS CellMask stain (blue, Invitrogen), and/or testing compounds (ellagic acid dihydrate, insulin, or vehicle) were added. Cells were incubated for 30 min at 37° C. Cells were washed twice with PBS++and incubated with 2-NBDG for 10 minutes. Cells were washed thrice with PBS++and then imaged in PBS++. Alternatively, the final PBS wash was removed and cells were incubated with Accutase (Invitrogen) for 10 min at 37° C., neutralized with 10% FBS in 1× PBS, and analyzed by flow cytometry. An additional experiment was performed to measure glucose uptake in C2C12 cells exposed to metformin, insulin and ellagic acid dihydrate 2 (batch 2). FIG. 5C. Glucose uptake in ellagic acid dihydrate treated cell culture was measured and compared to glucose uptake under insulin or ellagic acid treatment. […] Flow cytometry results were run in triplicate with 1000 cells per batch.

[5] = test system: mice; experiment: Activity level in mice; assay type: in vivo, mouse; conditions: observation by the Applicant in treated mice
Excerpt: Activity levels in mice treated with ellagic acid dihydrate may be quantified by several procedures, such as those outlined in Turri, M. et al.; QTL Analysis Identifies Multiple Behavioral Dimensions in Ethological Tests of Anxiety in Laboratory Mice; Current Biology; 2001; 11(10): 725-734. Two examples of procedures taught therein follows. Gross Locomotor Activity in Home Cage: Mice are caged singly several days prior to home cage activity monitoring and subsequent testing. Activity in home cages are measured during the first 2 hours of the dark cycle on two consecutive days. Two infrared photo emitter-detector pairs, located outside the clear plastic home cage that divide the cage into three equal areas, are used to record gross locomotor activity on the floor of the home cage as the animal breaks the photo beams. The beam-break activity score consists of the square root of the number of beam breaks for each detector summed across the two test days. Magnitude of Activity in Home Cage: Mice are caged singly several days prior to home cage activity monitoring and subsequent testing. Activity in home cages are measured during the first 2 hours of the dark cycle on two consecutive days. An infrared motion detector located above the top of the home cage is employed to converts all motion sensed within the home cage into arbitrary units, based on the magnitude of activity detected.

[6] = test system: p44/42 MAPK / Phos p44/42 MAPK in C2C12 cells; experiment: p44/42 MAPK:phos p44/42 MAPK ratio by immunocytochemistry, high-content imaging; assay type: cell-based, mouse; conditions: C2C12, treated 30 minutes, 0.04 nM, FIG. 9
Method: (§1) Stimulation of AKT pathways and MAPK pathways in ellagic acid dihydrate, metformin, and insulin treated cell cultures was performed. Insulin stimulates glucose uptake into cells by increasing GLUT4 activation, and AKT, specifically phos-AKT, signaling alters GLUT4 translocation. […] Cellular assays were performed using mouse myoblast C2C12 cells. Relative protein levels of AKT:phos AKT and p44/42 MAPK:phos p44/42 MAPK were determined.
Serum starved cells (1 hr) were treated for 30 minutes with each of the tested compounds. Ratios of phosphorylated to non-phosphorylated proteins were determined using immunocytochemistry labeling (anti-AKT, anti-Phos AKT; or anti-p44/42 MAPK, anti-Phos p44/42 MAPK) on a high-content imaging system (Operetta, Perkin Elmer) using the fluorescent signal of anti-rabbit Alexa 647. Increased phosphorylation is indicated as decrease in signal of AKT:Phos AKT ratio (log2 scale) and p44/42 MAPK:Phos p44/42 MAPK ratio (log2 scale) relative to vehicle treated cells.

[7] = test system: AKT / Phos AKT in C2C12 cells; experiment: AKT:phos AKT ratio by immunocytochemistry, high-content imaging; assay type: cell-based, mouse; conditions: C2C12, serum starved 1 hr, treated 30 minutes, 4 nM-4 μM, FIG. 8
Method: as §1, with “[…] Serum starved cells (1 hr) were treated for 30 minutes with each” for “Relative protein levels”, “the tested compounds.” for “AKT:phos AKT and p44/42 MAPK:phos p44/42 MAPK were determined.”

[8] = test system: mouse myoblast C2C12 cells; experiment: Glucose uptake, 2-NBDG labeling, flow cytometry, C2C12; assay type: cell-based
Method: Cellular assays were performed using mouse myoblast C2C12 cells and MEF cells. […] Increased glucose uptake was indicated as increasing signal of 2-NBDG ([…]) in cells. Glucose uptake assays were carried out in a final incubation volume of 50 μl consisting of, 2-NBDG), (100 μM) in 1× Phosphate Buffered Saline w/Ca+, Mg+ (PBS++). The same buffer was used for washing cells. Insulin was used as a positive control. All testing compounds were prepared in 10% DMSO and diluted 1:100 for a final concentration of 0.1% DMSO (vehicle). Cells were culture to 70-90% confluence and then washed twice with PBS++. Cells were incubated for 30 minutes at 37° C. in PBS++. Nuclear stain, HCS CellMask stain (blue, Invitrogen), and/or testing compounds (ellagic acid dihydrate, insulin, or vehicle) were added. Cells were incubated for 30 min at 37° C. Cells were washed twice with PBS++and incubated with 2-NBDG for 10 minutes. Cells were washed thrice with PBS++and then imaged in PBS++. Alternatively, the final PBS wash was removed and cells were incubated with Accutase (Invitrogen) for 10 min at 37° C., neutralized with 10% FBS in 1× PBS, and analyzed by flow cytometry. An additional experiment was performed to measure glucose uptake in C2C12 cells exposed to metformin, insulin and ellagic acid dihydrate 2 (batch 2). FIG. 5C.

[9] = test system: GLUT4-GFP in mouse myoblast C2C12 cells; experiment: Localization of glucose transporter GLUT4-GFP, time-lapse confocal microscopy; assay type: cell-based; conditions: C2C12, 4000 nM
Method: Induction of glucose transporter, GLUT-4, in ellagic acid dihydrate treated cell cultures was studied. Cellular assays were performed using mouse myoblast C2C12 cells. The cells were infected with a fusion glucose transporter 4 green fluorescent protein (GLUT4-GFP). This protein allows the visualization of GLUT4 by imaging the GFP under fluorescent time-lapse microscopy. Frames were compiled to produce time-lapse images of cellular changes with no treatment or treatment with insulin. The localization of glucose transporter (GLUT4-GFP) was performed in final incubation volume of 505 μL, consisting of 500 μL of Hank's Buffer (Invitrogen) and 5 μl of tested compounds. Insulin was used as positive controls and vehicle (0.1% DMSO) as the negative control. All test compounds were prepared in 10% DMSO and diluted 1:100 for a final concentration of 0.1% DMSO (vehicle). The cells were rinsed in Hank's Buffer thrice and then incubated in Hank's Buffer at 37° C. for one hour. The test compounds were added (ellagic acid dihydrate, insulin, or vehicle) and the cells were imaged using laser-confocal microscopy (Leica TCS SP5 X) with FITC fluorescent filters to determine changes in GLUT4-GFP localization. Time-lapse images (TIF) were collected and post-processed using Image-J (NIH) for video construction.

| Molecule | body weight lost on average ([1]; human equivalent dose, daily) | mean glucose level values, treated versus control mice [1] | glucose uptake per unit dose ([2]; in vitro conditions, summary statement) | blood glucose ([3]; all treatments (LD, HD) compared to control) | body weight lost on average ([3]; 10× higher dose (HD, 406 mg ellagic acid/kg)) | body weight lost on average ([3]; human equivalent dose (LD, 40.6 mg ellagic acid/kg)) | dose effect for increasing glucose uptake [4] | activity levels [5] | p44/42 MAPK:Phos p44/42 MAPK ratio relative to vehicle treated cells [6] | AKT:Phos AKT ratio (log2 scale) relative to vehicle treated cells [7] | increased glucose uptake relative to vehicle treated cells ([2]; 400 nM exposure, fibroblasts, FIG. 4B) | dose effect for increasing glucose uptake ([2]; MEFs, flow cytometry, 4 μM-0.04 nM) | glucose uptake (2-NBDG signal) relative to vehicle ([2]; MEFs, flow cytometry, FIG. 4A) | glucose uptake (signal of 2-NBDG) in comparison to vehicle [4] | increase in glucose uptake in myoblasts relative to fibroblasts ([8]; C2C12 (FIGS. 5A, 5B) versus MEFs (FIGS. 4A, 4B)) | dose effect for increasing glucose uptake ([8]; C2C12, flow cytometry, 4 μM-0.04 nM) | glucose uptake (2-NBDG signal) relative to vehicle ([8]; C2C12, flow cytometry, FIG. 5A) | p44/42 MAPK:Phos p44/42 MAPK ratio relative to vehicle treated cells ([6]; 400 nM) | GLUT4-GFP around the cell nucleus [9] | ruffling of filopodia at the surface of the cell [9] |
| --- | --- | --- | --- | --- | --- | --- | --- | --- | --- | --- | --- | --- | --- | --- | --- | --- | --- | --- | --- | --- |
| O=c1oc2c(O)c(O)cc3c(=O)oc4c(O)c(O)cc1c4c23 [ellagic acid] | 11.7 % of body weight | no significant differences | little to no glucose uptake per unit dose | Normal levels of blood glucose | 10.4 % of body weight | 8.9 % of body weight | no such dose effect | increased activity levels | – | – | – | – | – | – | – | – | – | – | – | – |
| CN(C)C(=N)N=C(N)N [metformin] | – | – | – | – | – | – | – | – | increased the ratio of p44/42 MAPK | increase in AKT relative to phosphorylation of AKT | – | – | – | – | – | – | – | – | – | – |
| insulin: Insulin was used as a positive control [reference compound] | – | – | – | – | – | – | showed a dose effect | – | – | −0.5 | 32% | showed a dose effect | significant increase | showed an increase in glucose uptake | ~4 × | showed a dose effect | significant increase | increase in p44/42 MAPK | decrease in GLUT4-GFP around the cell nucleus | rapid production of numerous projections |
